Here are results for five molecules from patent publication US20110305784A1, “Fractionated products obtained from gamboge resin, and medical uses of the same” (priority 2010, published 2011).

≈ marks a conversion by molar mass, not a printed value.

One data set can be described thus: in vitro. As to conditions: human. The source says:
(§1) The in vitro anti-cancer test was primarily used to detect the effect of a candidate drug on cancer cell proliferation. The working principle involved therein is the ability of viable cells to shift alamarBlue (AbD Serotec, UK) from its originally non-fluorescent oxidized state (non-fluorescent, blue) to a reduced form (fluorescent, red) having fluorescence via metabolic reaction. According to the fluorescent data result generated by the alamarBlue reagent thus obtained, the proliferation of the viable cells and cell activity can be quantified for detection.
(§2) In the in vitro anti-cancer tests, a candidate drug was tested at 5 different concentrations of 0.01, 0.1, 1, 10, and 100 μg/ml, and six human cancer cell lines and a normal human cell line were used (see Table 10).

Data set [1] deals with Human breast adenocarcinoma cell MCF7. As to the kind of experiment: cells. As to conditions: for IC50: MCF7, read-out: IC50 (50% inhibition concentration); for CC50: MCF7, read-out: LC50 (50% lethal concentration).
Description: as §1, §2

Data set [2] concerns Human colon adenocarcinoma cell HT-29. As to the kind of experiment: cells. To be noted: for IC50: HT-29, read-out: IC50 (50% inhibition concentration); for CC50: HT-29, read-out: LC50 (50% lethal concentration).
Description: as §1, §2

In data set [3] the test system is Human hepatocellular carcinoma cell HepG2. Put plainly: cells. To be noted: for IC50: HepG2, read-out: IC50 (50% inhibition concentration); for CC50: HepG2, read-out: LC50 (50% lethal concentration).
Description: as §1, §2

Data set [4] has as its system Human histocytic lymphoma cell U937. As to the kind of experiment: cells. As to conditions: for IC50: U-937, read-out: IC50 (50% inhibition concentration); for CC50: U-937, read-out: LC50 (50% lethal concentration).
Description: as §1, §2

The test system of data set [5] is Human lung carcinoma cell A549. As to the kind of experiment: cells. To be noted: for IC50: A549, read-out: IC50 (50% inhibition concentration); for CC50: A549, read-out: LC50 (50% lethal concentration).
Description: as §1, §2

Data set [6] deals with Human promyelocytic leukemia cell HL-60. As to the kind of experiment: cells. To be noted: for IC50: HL-60, read-out: IC50 (50% inhibition concentration); for CC50: HL-60, read-out: LC50 (50% lethal concentration).
Description: as §1, §2

In data set [7] the test system is Human umbilical venal epithelial cell (HUVEC). Put plainly: cells. As to conditions: Homo sapiens, HUVEC, read-out: IC50 (50% inhibition concentration).
Description: as §1, §2

In the case of `C=C(C)C1CC[C@@]2(C)Oc3c(CC=C(C)C)c4c(c(O)c3[C@@H]1C2O)C(=O)C1=C[C@@H]2CC3C(C)(C)OC(C/C=C(/C)C(=O)O)(C2=O)[C@@]13O4` (stereo partly drawn) [Gh-1050, 3α-hydroxygambogellic acid], the CC50 turned out to be 3.4 µg/mL (≈ 5.27 µM) in “in vitro”; 1 µg/mL (≈ 1.55 µM) in data set [1]; 7.7 µg/mL (≈ 11.9 µM) in data set [2]; 3.8 µg/mL (≈ 5.89 µM) in data set [3]; 2.3 µg/mL (≈ 3.57 µM) in data set [4]; 0.74 µg/mL (≈ 1.15 µM) in data set [5]. In data set [6], the CC50 came out at 7 µg/mL (≈ 10.9 µM). Further, the IC50 in data set [1] stood at 0.14 µg/mL (≈ 0.217 µM); in data set [2] it was 4.8 µg/mL (≈ 7.44 µM); in data set [3], 1.1 µg/mL (≈ 1.71 µM); in data set [4], 0.21 µg/mL (≈ 0.326 µM); in data set [5], 0.13 µg/mL (≈ 0.202 µM); in data set [6], 0.17 µg/mL (≈ 0.264 µM). The IC50 in data set [7] came to 0.78 µg/mL (≈ 1.21 µM).

Regarding `CC(C)=CCc1c2c(c(O)c3c1O[C@]14C(=C[C@@H]5CC1C(C)(C)OC4(C/C=C(/C)C(=O)O)C5=O)C3=O)C=C[C@@](C)(CCC(O)C(C)(C)O)O2` (some centres unmarked) [Gh-3261, formoxanthone J], the CC50 in “in vitro” turned out to be 1.4 µg/mL (≈ 2.11 µM); in data set [1], 2.8 µg/mL (≈ 4.22 µM); in data set [2], 3.9 µg/mL (≈ 5.88 µM); in data set [3] it was 2.8 µg/mL (≈ 4.22 µM); in data set [4], 0.31 µg/mL (≈ 0.468 µM); in data set [5], 0.5 µg/mL (≈ 0.754 µM). For the same molecule, in data set [6], the CC50 was 7 µg/mL (≈ 10.6 µM).

In the case of `CC(C)=CCc1c2c(c(O)c3c1O[C@]14C(=C[C@@H]5CC1C(C)(C)OC4(C/C=C(/C)C(=O)O)C5=O)C3=O)C=C[C@](C)(CCC(O)C(C)(C)O)O2` (some centres unmarked) [Gh-3271, epiformoxanthone J], the CC50 is 1.5 µg/mL (≈ 2.26 µM) in “in vitro”; 0.62 µg/mL (≈ 0.935 µM) in data set [1]; 5.8 µg/mL (≈ 8.75 µM) in data set [2]; 4.6 µg/mL (≈ 6.94 µM) in data set [3]; 0.35 µg/mL (≈ 0.528 µM) in data set [4]; 0.51 µg/mL (≈ 0.769 µM) in data set [5]. In addition, the CC50 in data set [6] is 17.1 µg/mL (≈ 25.8 µM).

On to `CC(C)=CCc1c2c(c(O)c3c1O[C@]14C(=C[C@@H]5CC1C(C)(C)OC4(C/C=C(/C)C(=O)O)C5=O)C3=O)C=C[C@@](C)(C/C=C/C(C)(C)O)O2` [Gh-3272, formoxanthone H], for which the CC50 was found to be 2.5 µg/mL (≈ 3.88 µM) in the data set “in vitro”; 2.8 µg/mL (≈ 4.34 µM) in data set [1]; 6.6 µg/mL (≈ 10.2 µM) in data set [2]; 3.7 µg/mL (≈ 5.74 µM) in data set [3]; 0.43 µg/mL (≈ 0.667 µM) in data set [4]; 4.7 µg/mL (≈ 7.29 µM) in data set [5]. Besides, the CC50 in data set [6] came out at 5.1 µg/mL (≈ 7.91 µM). In addition, the IC50 in data set [1] stood at 0.73 µg/mL (≈ 1.13 µM); in data set [2], 0.36 µg/mL (≈ 0.558 µM); in data set [3] it was 1.2 µg/mL (≈ 1.86 µM); in data set [4] it was 0.16 µg/mL (≈ 0.248 µM); in data set [5], 1.7 µg/mL (≈ 2.64 µM); in data set [6], 1.7 µg/mL (≈ 2.64 µM). For the same molecule, the IC50 in data set [7] was 0.12 µg/mL (≈ 0.186 µM).

As to `C=C(C)C(O)CC[C@]1(C)C=Cc2c(O)c3c(c(CC=C(C)C)c2O1)O[C@]12C(=C[C@@H]4CC1C(C)(C)OC2(C/C=C(/C)C(=O)O)C4=O)C3=O` (some centres unmarked) [Gh-3291, formoxanthone D], the CC50 worked out at 1.4 µg/mL (≈ 2.17 µM) in “in vitro”; 2.8 µg/mL (≈ 4.34 µM) in data set [1]; 4.7 µg/mL (≈ 7.29 µM) in data set [2]; 8.7 µg/mL (≈ 13.5 µM) in data set [3]; 0.61 µg/mL (≈ 0.946 µM) in data set [4]; 3.3 µg/mL (≈ 5.12 µM) in data set [5]. Besides, the CC50 in data set [6] was 30 µg/mL (≈ 46.5 µM). The IC50 in data set [1] is 0.45 µg/mL (≈ 0.698 µM); in data set [2], 0.081 µg/mL (≈ 0.126 µM); in data set [3], 0.65 µg/mL (≈ 1.01 µM); in data set [4], 0.22 µg/mL (≈ 0.341 µM); in data set [5] it was 0.62 µg/mL (≈ 0.962 µM); in data set [6] it was 4.5 µg/mL (≈ 6.98 µM). In addition, the IC50 in data set [7] is 0.34 µg/mL (≈ 0.527 µM).
